Data set [1] in a line: Cytotoxicity against human […] cells assessed as inhibition of cell proliferation after 3 days by coulter counter analysis. The format is functional, cell-based. To be noted: 72 h.
Data set [2] has as its system Raji. Kind of data set: Cytotoxicity against human Raji cells assessed as inhibition of cell proliferation after 3 days by coulter counter analysis. In kind it is functional, cell-based. As to conditions: 72 h.
Data set [3] has as its system DU-145. Kind of data set: Cytotoxicity against human DU145 cells assessed as inhibition of cell proliferation after 24 hrs by MTT assay. The format is functional, cell-based. To be noted: DU-145, 24 h. (Tetrazolium dyes change colour on reduction, which living cells bring about.)
The nature of data set [4]: AUC in Sprague-Dawley rat CSF at 2.5 mg/kg, iv administered as single dose by CE-UV analysis. The format is ADME, organism-based. On the set-up: dose 2.5 mg/kg, route intravenous. As to conditions: cerebrospinal fluid.
A short description of data set [5]: AUC in Sprague-Dawley rat serum at 2.5 mg/kg, iv administered as single dose by CE-UV analysis. Set-up: dose 2.5 mg/kg, route intravenous. In kind it is ADME, organism-based.
Data set [6] concerns Serum. Briefly: Ratio of AUC in CSF to AUC in serum of Sprague-Dawley rat at 2.5 mg/kg, iv. The format is ADME, organism-based. On the set-up: dose 2.5 mg/kg, route intravenous.

Bounds are passed on as bounds.

As to `CNC(=O)N[C@H]1[C@@H]2NC(=O)c3cccn3[C@@H]2C[C@H]1O`, the concentration for half-maximal inhibition (IC50) in data set [1] and in data set [2] was greater than 10000 nM in each case.

Take `CN1C(=O)N[C@H]2[C@@H]3NC(=O)c4ccc(C5CC5)n4[C@@H]3C[C@]21O`: the IC50 was 1000 nM in data set [1], 400 nM in data set [2] and 5 µM in data set [3].

For `O=C1N[C@H]2[C@@H]3NC(=O)c4cccn4[C@@H]3C[C@H]2O1`, the half-inhibitory concentration (IC50) in data set [1] and in data set [2] was greater than 10000 nM in each case.

For `CN1C(=O)N[C@@H]2[C@H]3NC(=O)c4ccc(Br)n4[C@H]3C[C@@]21O`, the IC50 in data set [3] was greater than 10 µM.

Turning to `CN1C(=O)N[C@H]2[C@@H]3NC(=O)c4ccc(-c5ccc(N)cc5)n4[C@@H]3C[C@]21O`, in data set [3], the IC50 is greater than 10 µM.

Consider `CCN1C(=O)N[C@H]2[C@@H]3NC(=O)c4cccn4[C@@H]3C[C@]21O`, for which the IC50 in data set [3] is greater than 10 µM.

Consider `CN1C(=O)N[C@H]2[C@@H]3NC(=O)c4cccn4[C@@H]3C[C@]21O`, for which the IC50 in data set [1] was 3000 nM; in data set [2] it was 3160 nM; in data set [3], greater than 10 µM.

`CN1C(=O)N[C@H]2[C@@H]3NC(=O)c4ccc(Br)n4[C@@H]3C[C@]21O` [AGELASTATIN A]: the area under the curve (AUC) is 3.41 µM·h in data set [4] and 53.2 µM·h in data set [5]. Besides, the IC50 worked out at 2800 nM in data set [1], 140 nM in data set [2] and 2.3 µM in data set [3].

With `CCN1C(=O)N[C@H]2[C@@H]3NC(=O)c4cc(Cl)c(Cl)n4[C@@H]3C[C@]21O`, the “Ratio AUC” value in data set [6] is reported as 30.7%. The AUC in data set [4] was 7.6 µM·h; in data set [5], 24.8 µM·h. The figures for the IC50 in data set [1], in data set [2] and in data set [3] were 440 nM, 620 nM and 1.4 µM, respectively.

Turning to `CNC(=O)N[C@H]1[C@@H]2NC(=O)c3ccc(Br)n3[C@@H]2C[C@H]1O`, the 50% inhibitory concentration (IC50) in data set [1] and in data set [2] was greater than 10000 nM each time.

Consider `CCN1C(=O)N[C@H]2[C@@H]3NC(=O)c4ccc(Cl)n4[C@@H]3C[C@]21O`, for which the “Ratio AUC” value in data set [6] stood at 27%. The AUC was 10.1 µM·h in data set [4] and 37.5 µM·h in data set [5]. In addition, the IC50 in data set [1] came out at 280 nM; in data set [2], 300 nM; in data set [3], 2.6 µM.

Consider `COc1ccc(CN2C(=O)N[C@H]3[C@@H]4NC(=O)c5ccc(Br)n5[C@@H]4C[C@]32O)cc1`, for which, in data set [3], the IC50 was greater than 10 µM.

Regarding `CN1C(=O)N[C@H]2[C@@H]3NC(=O)c4ccc(-c5ccccc5)n4[C@@H]3C[C@]21O`, the IC50 in data set [1] is 1500 nM; in data set [2] it was 3800 nM; in data set [3], 6 µM.

In the case of `CN1C(=O)N[C@H]2[C@@H]3NC(=O)c4ccc(Cl)n4[C@@H]3C[C@]21O`, the “Ratio AUC” value in data set [6] is recorded as 16%. Moreover, the values for the AUC in data set [4] and in data set [5] were 3.75 µM·h and 22.8 µM·h, respectively. Also, the 50% inhibitory concentration (IC50) in data set [1] stood at 80 nM; in data set [2], 180 nM; in data set [3] it was 1.2 µM.

On to `CCN1C(=O)N[C@H]2[C@@H]3NC(=O)c4ccc(Br)n4[C@@H]3C[C@]21O`, for which, in data set [3], the half-maximal inhibitory concentration (IC50) was greater than 10 µM.

One may read the IC50 as the point on the concentration scale where inhibition reaches its midpoint. By AUC is commonly meant the area under the concentration-time curve, a measure of exposure. Low values mean less exposure, high ones more exposure.

The record behind these values is ChEMBL document CHEMBL3132803 (Medchemcomm, 2013).
